Measurements as given in patent US6531148B1, “Therapeutic agents” (Takara Shuzo Co., Ltd., priority 1998, dated 2003).
Entries after “also recorded” stand apart in the source; their conditions may differ.

What was measured:
[1] = test system: NO production induced by LPS and IFN-γ in RAW264.7 cells; assay: NO production inhibition test; format: cell-based; details: for inhibition of NO production induced by LPS and IFN-γ: NO2− in the medium, Griess' reagent
Experimental: (1) RAW264.7 cells (ATCC TIB 71) were suspended in Dulbecco's modified Eagle's medium (Bio Whittaker, 12-917F) without phenol red containing 10% fetal bovine serum (Gibco) and 2 mM L-glutamine (Life Technologies Oriental, 25030-149) at a concentration of 3×10^5 cells/ml. 500 μl of the suspension was added to each well of a 48-well microtiter plate and the plate was incubated at 37° C. for 12 hours in the presence of 5% CO2. 10 μl of an aqueous solution containing 25 μg/ml lipopolysaccharide (LPS, Sigma, L-2012) and 500 U/ml interferon-γ (IFN-γ, sold by Cosmobio, GZM-MG-IFN), and 10 μl of the aqueous DGE solution at 250 or 500 μM were added to the well. The plate was incubated for additional 12 hours. The concentration of NO2^− produced by oxidation of NO in the medium was then measured. As control groups, a group to which LPS or IFN-γ was not added and a group to which DGE was not added were provided.
(§1) After cultivation, 100 μl of 4% Griess' reagent (Sigma, G4410) was added to 100 μl of the medium, and the mixture was allowed to stand for 15 minutes at room temperature. The absorbance at 490 nm was then measured. NO2^− concentration in the medium was calculated with reference to a calibration curve prepared by using NaNO2 at a given concentration dissolved in the same medium as that described above. All of the measurements were carried out in triplicate.
(2) RAW264.7 cells were suspended in Dulbecco's modified Eagle's medium without phenol red containing 10% fetal bovine serum and 2 mM L-glutamine at a concentration of 3×10^5 cells/ml. 500 μl of the suspension was placed in each well of a 48-well microtiter plate. […] The concentration of NO2^− produced by oxidation of NO in the medium was measured. […]
as §1, with “reagent” for “reagent (Sigma, G4410)”, “culture supernatant,” for “medium,”, “above.” for “above. All of the measurements were carried out in triplicate.”
RAW264.7 cells were suspended in Dulbecco's modified Eagle's medium without phenol red containing 10% fetal bovine serum and 2 mM L-glutamine at a concentration of 3×10^5 cells/ml. […] The concentration of NO2^− produced by oxidation of NO in the medium was then measured. […]
as §1, with “above.” for “above. All of the measurements were carried out in triplicate.”

[2] = test system: α-glucosidase from rat small intestine mucous membrane; assay: α-Glucosidase inhibition test (crude enzyme from rat small intestine); format: biochemical; details: for relative activity: control without DGE = 100%
Experimental: (2) A crude enzyme preparation of α-glucosidase from rat small intestine mucous membrane [prepared according to the method as described in Arne Dahlqvist, Anal. Biochem., 7:18-25 (1964)] was used to measure the activity of inhibiting α-glucosidase of DGE as follows.
For the enzymatic reaction, 80 μl of a solution of sucrose, maltose, treharose or soluble starch as a substrate in 10 mM phosphate buffer (pH 7.0) buffer at a final concentration of 100 mM (0.5% for soluble starch) was added to 10 μl of a test sample solution appropriately diluted with the same buffer. 10 μl of the crude enzyme solution prepared from rat small intestine was added thereto. The mixture was reacted at 37° C. for 20 minutes.
The enzymatic reaction was assessed by adding 3 ml of a reagent for glucose measurement (Wako Pure Chemical Industries) to the reaction mixture, reacting at 37° C. for 5 minutes and then measuring the absorbance at 505 nm as the glucose content in the mixture.
The inhibitory activity of DGE on the digestion of each substrate by α-glycosidase was measured using DGE at four different concentrations according to the above-mentioned method. The activity of inhibiting α-glycosidase was expressed as a relative activity (%) defining the activity of the control without DGE as 100%.

Row | Compound | NO2− concentration in the medium ([1]; LPS and IFN-γ, 10 μl of 1 mM DGE-GSH per 500 μl well, 16 hours, control 12.1 μM, no addition 4.6 μM) [µM] | activities of inhibiting α-glycosidase [2] | inhibition of NO production, 5 hours pre-culture with DGE compared with 0.5 hour ([1]; DGE added before LPS and IFN-γ) | inhibition of NO production induced by LPS and IFN-γ [1] | relative activity ([2]; substrate Maltose, DGE 0.2 mM) [%] | relative activity ([2]; substrate Maltose, DGE 0.5 mM) [%] | relative activity ([2]; substrate Maltose, DGE 1.0 mM) [%] | relative activity ([2]; substrate Maltose, DGE 2.0 mM) [%] | relative activity ([2]; substrate Soluble starch, DGE 0.2 mM) [%] | relative activity ([2]; substrate Soluble starch, DGE 0.5 mM) [%] | relative activity ([2]; substrate Soluble starch, DGE 1.0 mM) [%] | relative activity ([2]; substrate Soluble starch, DGE 2.0 mM) [%] | relative activity ([2]; substrate Treharose, DGE 0.2 mM) [%] | relative activity ([2]; substrate Treharose, DGE 0.5 mM) [%] | relative activity ([2]; substrate Treharose, DGE 1.0 mM) [%] | relative activity ([2]; substrate Treharose, DGE 2.0 mM) [%]
1 | 5-L-glutathion-S-yl-2-hydroxy-3,7-dioxabicyclo[2.2.2]octan-1-ol [DGE-GSH] | 9.4 | also exhibited similar activities of inhibiting α-glycosidase | – | – | – | – | – | – | – | – | – | – | – | – | – | –
2 | O=C1C=CC(CO)OC1O [DGE, L-glycero-1,5-epoxy-1αβ,6-dihydroxy-cis-hex-3-en-2-one] | – | – | stronger inhibition of NO production | dose-dependently inhibited NO production; also recorded: exhibited an activity of inhibiting NO production | 96 | 97 | 100 | 96 | 100 | 95 | 91 | 92 | 98 | 96 | 99 | 100
3 | O=C1C=CC(CO)OC1O [κ-DGE, D-glycero-1,5-epoxy-1αβ,6-dihydroxy-cis-hex-3-en-2-one] | – | also exhibited similar activities of inhibiting α-glycosidase | – | exhibited a similar activity | – | – | – | – | – | – | – | – | – | – | – | –
